# Test results as given in patent US4180655A, “Nitrosourea derivatives” (Suami; Tetsuo, priority 1974, dated 1979).
# Read-outs that look alike come from different tables or passages of the source.
# System: Leukemia L1210 cells
# Assay: Chemotherapeutic effect of nitrosourea derivatives on leukemia L1210 in mice
# Assay type: in vivo, mice (BDF1/BDF)
# Design: Volume of ascites, Treated: unit not given here
# Text: Chemotherapeutic effect of a variety of the nitrosourea derivatives of the formula I according to this invention on leukemia L1210 in mice were investigated by the following method and materials.
# A--BDF1 mice (about 6 week-aged; body weight: 22±1 g); each experimental group was composed of 2 male mice.
# B--BDF1 mice (about 7 week-aged; body weight: 21±2 g); each experimental group was composed of 3 male mice.
# C--BDF mice (about 7 week-aged; body weight: 22±2 g); each experimental group was composed of 2 male mice.
# D--BDF mice (about 6 week-aged; body weight: 21±2 g); each experimental group was composed of 3 male mice.
# E--BDF1 mice (about six week-aged; body weight 20±1 g); each experimental group was composed of 3 female mice.
# F--BDF1 mice (about six week-aged; body weight 21±1 g); each experimental group was composed of 3 male mice.
# A--Leukemia L1210 cells (2.1×10^6 cells/ 0.05 ml/mouse) were intraperitoneally inoculated.
# B--Leukemia L1210 cells (1.9×10^6 cells/0.05 ml/mouse) were intraperitoneally inoculated.
# C--Leukemia L1210 cells (1.2×10^6 cells/0.05 ml/mouse) were intraperitoneally inoculated.
# A--The test compound was dissolved in a physiological saline solution and administered intraperitoneally at a volume of 0.1 ml/mouse. The administration was made at once/day, from 24 hours after i.p. inoculation of L1210 cells, for 3 days. The effect of test compound was assessed by mean survival days of mice, percent increase in life-span, anatomical findings involving the volume of ascites.
# B--The same as that used in A except that the drug administration was continued for 5 days.
# C--The same as that used in A except that the test compound was suspended in 0.5% CMC solution and that the drug administration was continued for 5 days.
# D--The same as that used in A except that the test compound was dissolved in distilled water for injection purposes.
# The percentage increase in life-span (ILS) was calculated as follows:
# Percentage increase in life-span (ILS)=T-C/C×100
# T: The mean survival days of the treated animals.
# C: The mean survival days of the untreated control.
# [1] = 1 mg/kg i.p. once/day for 3 days (procedure A, saline)
# [2] = 2 mg/kg i.p. once/day for 3 days (procedure A, saline)
# [3] = 4 mg/kg i.p. once/day for 3 days (procedure A, saline)
# [4] = 6 mg/kg i.p. once/day for 3 days (procedure A, saline)
# [5] = 8 mg/kg i.p. once/day for 3 days (procedure A, saline)
# [6] = 10 mg/kg i.p. once/day for 3 days (procedure A, saline)
# [7] = 20 mg/kg i.p. once/day for 3 days (procedure A, saline)
# [8] = 30 mg/kg i.p. once/day for 3 days (procedure A, saline)
# [9] = Mus musculus, L1210, ip, 72 h, 1 mg/kg i.p. once/day for 3 days (procedure A, saline), read-out: Percentage increase in life-span (ILS)
# [10] = Mus musculus, L1210, ip, 72 h, 2 mg/kg i.p. once/day for 3 days (procedure A, saline), read-out: Percentage increase in life-span (ILS)
# [11] = Mus musculus, L1210, ip, 72 h, 4 mg/kg i.p. once/day for 3 days (procedure A, saline), read-out: Percentage increase in life-span (ILS)
# [12] = Mus musculus, L1210, ip, 72 h, 8 mg/kg i.p. once/day for 3 days (procedure A, saline), read-out: Percentage increase in life-span (ILS)
# [13] = Mus musculus, L1210, ip, 72 h, 10 mg/kg i.p. once/day for 3 days (procedure A, saline), read-out: Percentage increase in life-span (ILS)
# [14] = 100 mg/kg i.p. once/day for 3 days (procedure D, distilled water)
# [15] = 200 mg/kg i.p. once/day for 3 days (procedure D, distilled water)
# [16] = 400 mg/kg i.p. once/day for 3 days (procedure D, distilled water)
# [17] = 16 mg/kg i.p. once/day for 3 days (procedure A, saline)
# [18] = Mus musculus, L1210, ip, 72 h, 16 mg/kg i.p. once/day for 3 days (procedure A, saline), read-out: Percentage increase in life-span (ILS)
# [19] = 50 mg/kg i.p. once/day for 3 days (procedure A, saline)
# [20] = 100 mg/kg i.p. once/day for 3 days (procedure A, saline)
# [21] = 150 mg/kg i.p. once/day for 3 days (procedure A, saline)
# [22] = 200 mg/kg i.p. once/day for 3 days (procedure A, saline)
# [23] = 2.5 mg/kg i.p. once/day for 3 days (procedure A, saline)
# [24] = 5 mg/kg i.p. once/day for 3 days (procedure A, saline)
smiles,measurement,setting,value
"O=NN(CCCl)C(=O)N[C@H]1[C@H](O)[C@@H](O)[C@H](O)[C@@H](O)[C@@H]1O [Compound 5, 1-(2-chloroethyl)-1-nitroso-3-(1N,3,5/2,4,6-pentahydroxycyclohexyl)urea]","Survival days, Treated (mean)",[1],12.0 days
same,"Volume of ascites, Treated",[1],4.5
same,"Survival days, Treated (mean)",[2],12.5 days
same,"Volume of ascites, Treated",[2],4.0
same,"Survival days, Treated (mean)",[3],13.0 days
same,"Volume of ascites, Treated",[3],2.8
same,"Survival days, Treated (mean)",[4],14.0 days
same,"Volume of ascites, Treated",[4],2.0
same,"Survival days, Treated (mean)",[5],16.0 days
same,"Volume of ascites, Treated",[5],2.5
same,"Survival days, Treated (mean)",[6],15.5 days
same,"Volume of ascites, Treated",[6],0
same,"Survival days, Treated (mean)",[7],> 61.1 days
same,"Volume of ascites, Treated",[7],0
same,"Survival days, Treated (mean)",[8],11.6 days
same,"Volume of ascites, Treated",[8],0
same,ILS at 1 mg/kg,[9],23.7%
same,ILS at 2 mg/kg,[10],28.9%
same,ILS at 4 mg/kg,[11],34%
same,ILS at 6 mg/kg,"Mus musculus, L1210, ip, 72 h, 6 mg/kg i.p. once/day for 3 days (procedure A, saline), read-out: Percentage increase in life-span (ILS)",44.3%
same,ILS at 8 mg/kg,[12],64.9%
same,ILS at 10 mg/kg,[13],59.8%
same,ILS at 20 mg/kg,"Mus musculus, L1210, ip, 72 h, 20 mg/kg i.p. once/day for 3 days (procedure A, saline), read-out: Percentage increase in life-span (ILS)",> 530%
same,ILS at 30 mg/kg,"Mus musculus, L1210, ip, 72 h, 30 mg/kg i.p. once/day for 3 days (procedure A, saline), read-out: Percentage increase in life-span (ILS)",19.6%
"COc1cccc2c1C(=O)c1c(O)c3c(c(O)c1C2=O)C[C@@](O)(C(C)=O)C[C@@H]3O[C@H]1C[C@H](N)[C@H](O)[C@H](C)O1 [Compound 10, Daunomycin, reference compound]","Survival days, Treated (mean)","0.25 mg/kg i.p. once/day for 5 days (procedure C, 0.5% CMC)",10.2 days
same,"Survival days, Treated (mean)","0.5 mg/kg i.p. once/day for 5 days (procedure C, 0.5% CMC)",12.8 days
same,"Survival days, Treated (mean)","1 mg/kg i.p. once/day for 5 days (procedure C, 0.5% CMC)",12.6 days
same,"Survival days, Treated (mean)","2 mg/kg i.p. once/day for 5 days (procedure C, 0.5% CMC)",13.6 days
same,ILS at 0.25 mg/kg,"Mus musculus, L1210, ip, 120 h, 0.25 mg/kg i.p. once/day for 5 days (procedure C, 0.5% CMC), read-out: Percentage increase in life-span (ILS)",20%
same,ILS at 0.5 mg/kg,"Mus musculus, L1210, ip, 120 h, 0.5 mg/kg i.p. once/day for 5 days (procedure C, 0.5% CMC), read-out: Percentage increase in life-span (ILS)",50.6%
same,ILS at 1 mg/kg,"Mus musculus, L1210, ip, 120 h, 1 mg/kg i.p. once/day for 5 days (procedure C, 0.5% CMC), read-out: Percentage increase in life-span (ILS)",48.3%
same,ILS at 2 mg/kg,"Mus musculus, L1210, ip, 120 h, 2 mg/kg i.p. once/day for 5 days (procedure C, 0.5% CMC), read-out: Percentage increase in life-span (ILS)",60%
"CN(N=O)C(=O)N[C@@H](CO)[C@@H](O)[C@H](O)[C@H](O)CO [Compound 12, N-carbamoyl-N'-methyl-N'-nitroso-D-glucosaminol, reference compound]","Survival days, Treated (mean)",[14],13.9 days
same,"Volume of ascites, Treated",[14],3.0
same,"Survival days, Treated (mean)",[15],15.0 days
same,"Volume of ascites, Treated",[15],4.0
same,"Survival days, Treated (mean)",[16],13.4 days
same,"Volume of ascites, Treated",[16],3.4
same,ILS at 100 mg/kg,"Mus musculus, L1210, ip, 72 h, 100 mg/kg i.p. once/day for 3 days (procedure D, distilled water), read-out: Percentage increase in life-span (ILS)",30%
same,ILS at 200 mg/kg,"Mus musculus, L1210, ip, 72 h, 200 mg/kg i.p. once/day for 3 days (procedure D, distilled water), read-out: Percentage increase in life-span (ILS)",40%
same,ILS at 400 mg/kg,"Mus musculus, L1210, ip, 72 h, 400 mg/kg i.p. once/day for 3 days (procedure D, distilled water), read-out: Percentage increase in life-span (ILS)",25%
"O=NN(CCCl)C(=O)N[C@H]1[C@H](O)CCC[C@@H]1O [Compound 4, 1-(2-chloroethyl)-3-(1,3/2N-dihydroxycyclohexyl)-1-nitrosourea]","Survival days, Treated (mean)",[2],22.0 days
same,"Volume of ascites, Treated",[2],0.8
same,"Survival days, Treated (mean)",[3],> 60.0 days
same,"Volume of ascites, Treated",[3],0
same,"Survival days, Treated (mean)",[5],> 59.3 days
same,"Volume of ascites, Treated",[5],0
same,"Survival days, Treated (mean)",[17],13.0 days
same,"Volume of ascites, Treated",[17],0
same,ILS at 2 mg/kg,[10],114%
same,ILS at 4 mg/kg,[11],> 482%
same,ILS at 8 mg/kg,[12],> 476%
same,ILS at 16 mg/kg,[18],26.2%
"O=NN(CCCl)C(=O)N[C@@H]1OC[C@@H](O)[C@H](O)[C@H]1O [Compound 3, 1-(2-chloroethyl)-1-nitroso-3-(β-D-xylopyranosyl)urea]","Survival days, Treated (mean)",[1],17.0 days
same,"Volume of ascites, Treated",[1],0
same,"Survival days, Treated (mean)",[2],> 24.0 days
same,"Volume of ascites, Treated",[2],0
same,"Survival days, Treated (mean)",[3],> 60.0 days
same,"Volume of ascites, Treated",[3],0
same,"Survival days, Treated (mean)",[5],> 60.0 days
same,"Volume of ascites, Treated",[5],0
same,"Survival days, Treated (mean)",[17],9.0 days
same,"Volume of ascites, Treated",[17],0
same,ILS at 1 mg/kg,[9],54.5%
same,ILS at 2 mg/kg,[10],> 118%
same,ILS at 4 mg/kg,[11],> 446%
same,ILS at 8 mg/kg,[12],> 446%
same,ILS at 16 mg/kg,[18],-18.2%
"O=NN(CCCl)C(=O)N[C@@H](CO)[C@@H](O)[C@H](O)[C@H](O)CO [Compound 9, N-carbamoyl-N'-(2-chloroethyl)-N'-nitroso-D-glucosaminol]","Survival days, Treated (mean)",[5],18.0 days
same,"Volume of ascites, Treated",[5],0
same,"Survival days, Treated (mean)",[17],> 53.7 days
same,"Volume of ascites, Treated",[17],0
same,ILS at 8 mg/kg,[12],68.2%
same,ILS at 16 mg/kg,[18],> 402%
"CN(N=O)C(=O)N[C@@H]1O[C@H](CO)[C@@H](O)[C@H](O)[C@H]1O [Compound 11, 1-(β-D-glucopyranosyl)-3-methyl-3-nitrosourea, reference compound]","Survival days, Treated (mean)",[19],12.0 days
same,"Volume of ascites, Treated",[19],2.8
same,"Survival days, Treated (mean)",[20],13.9 days
same,"Volume of ascites, Treated",[20],4.6
same,"Survival days, Treated (mean)",[21],14.1 days
same,"Volume of ascites, Treated",[21],1.9
same,"Survival days, Treated (mean)",[22],16.6 days
same,"Volume of ascites, Treated",[22],1.4
same,ILS at 50 mg/kg,"Mus musculus, L1210, ip, 72 h, 50 mg/kg i.p. once/day for 3 days (procedure A, saline), read-out: Percentage increase in life-span (ILS)",55.6%
same,ILS at 100 mg/kg,"Mus musculus, L1210, ip, 72 h, 100 mg/kg i.p. once/day for 3 days (procedure A, saline), read-out: Percentage increase in life-span (ILS)",80.7%
same,ILS at 150 mg/kg,"Mus musculus, L1210, ip, 72 h, 150 mg/kg i.p. once/day for 3 days (procedure A, saline), read-out: Percentage increase in life-span (ILS)",83.4%
same,ILS at 200 mg/kg,"Mus musculus, L1210, ip, 72 h, 200 mg/kg i.p. once/day for 3 days (procedure A, saline), read-out: Percentage increase in life-span (ILS)",108%
"O=NN(CCCl)C(=O)N[C@@H]1O[C@H](CO)[C@@H](O[C@@H]2O[C@H](CO)[C@H](O)[C@H](O)[C@H]2O)[C@H](O)[C@H]1O [Compound 8, 1-(2-chloroethyl)-3-(β-D-lactosyl)-1-nitrosourea]","Survival days, Treated (mean)",[23],12.5 days
same,"Volume of ascites, Treated",[23],3.3
same,"Survival days, Treated (mean)",[24],14.3 days
same,"Volume of ascites, Treated",[24],1.0
same,"Survival days, Treated (mean)",[6],> 47.0 days
same,"Volume of ascites, Treated",[6],0
same,ILS at 2.5 mg/kg,"Mus musculus, L1210, ip, 72 h, 2.5 mg/kg i.p. once/day for 3 days (procedure A, saline), read-out: Percentage increase in life-span (ILS)",28.9%
same,ILS at 5 mg/kg,"Mus musculus, L1210, ip, 72 h, 5 mg/kg i.p. once/day for 3 days (procedure A, saline), read-out: Percentage increase in life-span (ILS)",47.4%
same,ILS at 10 mg/kg,[13],> 384%
